Assays:
[1] = system: FdxT (DNA, hairpin, hexaethyleneglycol (HEG) loop between 9 and 10) TATAGCTATATAGCTATA; assay: FRET melting; conditions: 10 mM K+, 90 mM Li+; 10 mM Li cacodylate pH 7.2, 0.2 μM DNA, 2 μM compound
[2] = system: Pu24T (32P-labelled) (DNA, G4) TGAGGGTGGTGAGGGTGGGGAAGG; assay: photoalkylation (365 nm), denaturing PAGE; conditions: 100 mM K+; covalent; 10 mM Li cacodylate pH 7.2, 10 μM DNA, 20 μM compound
[3] = system: 22AG (32P-labelled) (DNA, G4) AGGGTTAGGGTTAGGGTTAGGG; assay: photoalkylation (365 nm), denaturing PAGE; conditions: 100 mM K+; covalent; 10 mM Li cacodylate pH 7.2, 10 μM DNA, 20 μM compound
[4] = system: 22AG (DNA, G4) AGGGTTAGGGTTAGGGTTAGGG; assay: CD titration, Hill fit; conditions: 10 mM Li cacodylate pH 7.2, 3 μM DNA
[5] = system: F(CEB25wt)T (DNA, G4) AAGGGTGGGTGTAAGTGTGGGTGGGT; assay: FRET melting; conditions: 1 mM K+, 99 mM Li+; 10 mM Li cacodylate pH 7.2, 0.2 μM DNA, 2 μM compound
[6] = system: F(c-Kit2)T (DNA, G4) GGGCGGGCGCGAGGGAGGGG; assay: FRET melting; conditions: 1 mM K+, 99 mM Li+; 10 mM Li cacodylate pH 7.2, 0.2 μM DNA, 2 μM compound
[7] = system: F(Pu24T)T (DNA, G4) TGAGGGTGGTGAGGGTGGGGAAGG; assay: FRET melting; conditions: 1 mM K+, 99 mM Li+; 10 mM Li cacodylate pH 7.2, 0.2 μM DNA, 20 μM compound
[8] = system: F21T (DNA, G4) GGGTTAGGGTTAGGGTTAGGG; assay: FRET melting; conditions: 10 mM K+, 90 mM Li+; 10 mM Li cacodylate pH 7.2, 0.2 μM DNA, 20 μM compound
[9] = system: F(c-Myc)T (DNA, G4) TTGAGGGTGGGTAGGGTGGGTAA; assay: FRET melting; conditions: 1 mM K+, 99 mM Li+; 10 mM Li cacodylate pH 7.2, 0.2 μM DNA, 2 μM compound
[10] = system: F(21CTA)T (DNA, G4) GGGCTAGGGCTAGGGCTAGGG; assay: FRET melting; conditions: 10 mM K+, 90 mM Li+; 10 mM Li cacodylate pH 7.2, 0.2 μM DNA, 2 μM compound

SMILES	binding [1]	binding [2]	binding [3]	binding ([4]; 100 mM K+)	binding ([4]; 100 mM Na+)	binding [5]	binding [6]	ΔT 1/2 [7] [°C]	ΔT 1/2 [8] [°C]	binding [9]	binding [10]
CN(C)Cc1cc(C#Cc2cccc(C#Cc3ccc(O)c(CN(C)C)c3)c2)ccc1O	no	yes	yes	yes	yes						
CN(C)Cc1cc2cc(C#Cc3cccc(C#Cc4ccc5cc(O)c(CN(C)C)cc5c4)c3)ccc2cc1O	no			yes							
C[N+](C)(C)Cc1ccc(C#Cc2cccc(C#Cc3ccc(C[N+](C)(C)C)c(O)c3)c2)cc1O	no	yes	yes	yes	yes						

The remaining lines, values ahead:

binding [1]	binding [2]	binding [3]	binding ([4]; 100 mM K+)	binding ([4]; 100 mM Na+)	binding [5]	binding [6]	ΔT 1/2 [7] [°C]	ΔT 1/2 [8] [°C]	binding [9]	binding [10]	SMILES
no			yes	yes							CN(C)Cc1ccc(C#Cc2cccc(C#Cc3ccc(CN(C)C)c(O)c3)c2)cc1O
no	yes	yes	yes	yes							C[N+](C)(C)Cc1cc(C#Cc2cccc(C#Cc3ccc(O)c(C[N+](C)(C)C)c3)c2)ccc1O
no			yes	yes	weak	weak	29.0	33.3	yes	weak	C[N+](C)(C)Cc1cc2cc(C#Cc3cccc(C#Cc4ccc5cc(O)c(C[N+](C)(C)C)cc5c4)c3)ccc2cc1O

— PMC9322314 (2022)
